Measured values as given in patent publication US12263198B1, “Compositions and methods of improving ruminant performance” (Ralco Nutrition, Inc., priority 2021, dated 2025).
Marks after values point to notes of the source that are not given here.

System: rumen fluid
Assay: ANKOM artificial rumen system, dry matter digestibility of hay
Assay type: cell-based, steers
Settings: 24 hours
Method: This study was conducted to evaluate the feed additive composition in an ANKOM artificial rumen system to compare digestibility of a feed additive of a cobalt lactate/yeast blend, relative to a feed additive of only cobalt lactate and a feed additive of only yeast. In each run, two cannulated steers were used to collect rumen fluid from the two steers at the Ralco Beef Research Farm in Marshall, MN. The rumen fluid was mixed with a buffer solution along with a different feed additive composition in each of three jars and a fourth jar having a control with no treatment. Eight runs were performed at differing amounts of cobalt lactate, yeast, and blends of cobalt lactate and yeast, as shown in each of the tables below. The cobalt lactate used in Runs 1-8 was Microbial Catalyst® from Ralco. The yeast used in Runs 1-8 was Emprove MX from Emmert.
Dacron bags with hay (Barley straw, DM 94.2, CP 5.4, ADF 54.15, NDF 75.6, Neg/cwt 17.7 and Nem/cwt 42.5 respectively) samples were then added to each jar, the jar was purged with CO2 and incubated for 24 hours at 39.5 degrees C. At the end of the 24 hours, the bags were removed, washed with clear tap water and run through the ANKOM fiber analyzer. At that point, the bags were dried and re-weighed, and the weight entered into formulas to give a dry matter digestibility value.
In this study a similar analysis was performed as in Example 5. In this example, Formulation A (used in Runs 6-8) was compared to Product 1 (Diamond V XPC®) and Product 2 (Amaferm® from BioZyme). The protocol used in this example is the same as that provided above for Example 5.

**Q.** Which DMD (Run 1, 3.0 g) does the source give for `CC(O)C(=O)[O-].CC(O)C(=O)[O-].[Co+2]` (centres unmarked) [cobalt lactate] here?
**A.** Its DMD is 54.37^b.

**Q.** And the DMD (Run 2, 6.0 g)?
**A.** The DMD was 57.04^b.

**Q.** And the DMD (Run 3, 3.0 g)?
**A.** Its DMD is 61.87^b.

**Q.** And the DMD (Run 4, 3.0 g)?
**A.** The DMD was 61.83^c.

**Q.** And the DMD (Run 5, 3.0 g)?
**A.** Its DMD is 64.59^c.

**Q.** What about the DMD (Run 6, 3.0 g) of the same molecule?
**A.** Its DMD is 62.41^c.

**Q.** And the DMD (Run 7, 3.0 g)?
**A.** Its DMD is 62.17^b.

**Q.** And the DMD (Run 8, 3.0 g)?
**A.** The DMD was 66.71^c.
